Patent US4500511A, “Antiinflammatory and analgesic gel” (Grelan Pharmaceutical Co., Ltd., priority 1982, dated 1985)

Test system: vascular permeability
Experiment: Suppression of increased vascular permeability (λ-carrageenin, dye leakage) in guinea pigs
Format: in vivo, Hartley strain albino guinea pigs
Settings: oral, 2.0 mg/kg; for Suppression rate: *p < 0.05
Method: The hair on the back of Hartley strain albino guinea pigs (male; weighing 235 to 270 g; in groups of 7 animals) was removed with an electric hair clipper and an electric razor, circles, 2.5 cm in diameter (4.91 cm^2 in area), were drawn symmetrically on both sides of the medium line, and 50 mg of each test external preparation was applied to the area of each circle. Three hours after application, 0.1 ml of 0.1% λ-carrageeninsolution was injected intradermally into the center of each circle, followed by injection of 0.5 ml/100 g of body weight of 0.5% Pontamine sky blue solution into the vein of the penis. Three hours after injection, each animal was sacrificed by decapitation, exsanguinated and flayed, and the area of dye leakage (major axis x minor axis) on the inner side of the skin was measured with slide calipers.
The external preparations used were preparations (A), (D), (E) and (H) containing of 0.1%, 0.25%, 0.5% and 1% of clidanac, respectively, and preparations (f), (g), (h) and (i) containing 0.1%, 0.25%, 0.5% and 1% of indomethacin, respectively. In the control group, any preparation was not administered but massage alone was performed.
For further comparison, oral preparations respectively containing clidanac and indomethacin were prepared by the procedure of Reference Example 4 and orally administered in a clidanac dose of 2 mg/kg and in an indomethacin dose of 2 mg/kg, respectively, and the animals were treated in the same manner as mentioned above.
The rate of suppression was calculated using the follwoing formula: [formula] where C is the area of dye leakage for the control group and T is the area of dye leakage for the drug-treated group.

SMILES	Area of dye leakage	Suppression rate
O=C(O)C1CCc2cc(C3CCCCC3)c(Cl)cc21 (stereo not shown) [Clidanac, 6-chloro-5-cyclohexylindane-1-carboxylic acid]	193.8 ± 12.1 mm^2	17.4%
COc1ccc2c(c1)c(CC(=O)O)c(C)n2C(=O)c1ccc(Cl)cc1 [Indomethacin]	195.7 ± 13.6 mm^2	16.6%
